Laboratory results taken from US4737504A, “5-fluoro-and 8-fluoro-trimetoquinol compounds and the processes for their preparation” (priority 1986, dated 1988).
Like-named read-outs stand apart in the source and are kept apart here.

Target: T1, U46619-induced contractions of rat thoracic aorta (Rattus norvegicus, UniProt P34978)
T1 construct: A 2-3 cm segment of thoracic aorta was excised; tissue Harlan Industries, Inc., Cumberland, IN (animals); host or cells: rat thoracic aorta, spirally cut strips
T1 sequence (P34978 1-341): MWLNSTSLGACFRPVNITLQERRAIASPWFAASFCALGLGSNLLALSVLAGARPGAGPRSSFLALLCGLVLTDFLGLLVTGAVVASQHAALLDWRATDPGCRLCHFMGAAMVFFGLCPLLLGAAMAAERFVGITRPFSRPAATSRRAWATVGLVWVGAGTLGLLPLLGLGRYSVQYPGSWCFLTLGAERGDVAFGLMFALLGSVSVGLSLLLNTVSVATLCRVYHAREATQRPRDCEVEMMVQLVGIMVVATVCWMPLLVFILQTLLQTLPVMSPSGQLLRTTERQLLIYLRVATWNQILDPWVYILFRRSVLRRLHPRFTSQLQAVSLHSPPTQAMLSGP
Test: antagonism of U46619-induced contractions of rat thoracic aorta
Type: cell-based, rat (male Sprague-Dawley)
Settings: for Kb: against U46619, read-out: pKB ± SEM (converted); for ΔpD2 of U46619: pD2 (control) - pD2 (treatment); for inhibitory potency on U46619-induced contractions greater than trimetoquinol: relative to trimetoquinol 1
Description: The vasoconstrictive activity of U46619 (a stable thromboxane A2 agonist) on thoracic aorta tissue was determined as follows: Male Sprague-Dawley rats (Harlan Industries, Inc., Cumberland, IN) weighing between 250 and 350 gm were stunned and killed by cervical dislocation. A 2-3 cm segment of thoracic aorta was excised, cleaned of any adhering fat and connecting tissue, spirally cut into 2 matched strips, Constantine, supra. (2.0×0.3 cm). Strips were mounted in 10 ml tissue baths filled with the physiological salt solution in which 3×10^-6 M indomethaecin was present. A tension of 1 gm was applied to the strips. Responses of the tissues to drugs were monitored via Grass FT-03 isometric force transducers connected to a Grass Model 7C polygraph (Grass Instruments Co., Quincy, MA).
Some experiments were done in the absence of indomethacin. Concentration-dependent responses to U46619 were constructed in each preparation as described by Van Rossum, supra.
Effective concentration-50 (EC50) values of the agonists were determined graphically from individual plots of percent response versus log concentration. The potency of each agonist was expressed as a pD2 value where pD2 is equal to the negative logarithm of the experimentally determined EC50 value.
Antagonists were quantitated by calculating their pKB or pA2 values according to the methods of Furchgott, Ann. N.Y. Acad. Sci., 139: 553-570 (1967) and Arunlakshana et al., Br. J. Pharmacol., 14: 48-58 (1959). The pKB value is equivalent to the -log of [I]/(CR-1), where pKB is the negative logarithm of the apparent dissociation constant of the antagonist (KB), [I] is the concentration of the antagonist, and CR is the concentration ratio of the agonist EC50 in the presence of antagonist to the agonist EC50 in the absence of antagonist. To determine significant differences between pD2, pKB or pA2 values, a 5% level of significance was used. Arunlakshana plots were analyzed by computer according to the method of Tallarida et al., Manual of Pharmacological Calculations With Computer Programs, 29-31, (1981).

## COc1cc(CC2NCCc3c2cc(O)c(O)c3F)cc(OC)c1OC (centres unmarked) [Compound 5-F-TMQ, 5-fluoro-trimetoquinol]
Analog 1 × 10^-4 M
  Kb: 1740 nM
  pD2 of U46619 in presence of analog: 6.40 ± 0.16
  ΔpD2 of U46619: 1.77 ± 0.16
Analog 3 × 10^-5 M
  Kb: 3160 nM
  pD2 of U46619 in presence of analog: 7.14 ± 0.08
  ΔpD2 of U46619: 1.02 ± 0.08
Analog 3 × 10^-6 M
  Kb: 1510 nM
  pD2 of U46619 in presence of analog: 7.69 ± 0.08
  ΔpD2 of U46619: 0.48 ± 0.07
  inhibitory potency on U46619-induced contractions greater than trimetoquinol: about 2 fold

## COc1cc(CC2NCCc3cc(O)c(O)c(F)c32)cc(OC)c1OC (centres unmarked) [Compound 8-F-TMQ, 8-fluoro-trimetoquinol]
Analog 1 × 10^-5 M
  Kb: 251 nM
  pD2 of U46619 in presence of analog: 6.81 ± 0.12
  ΔpD2 of U46619: 1.36 ± 0.12
Analog 3 × 10^-5 M
  Kb: 372 nM
  pD2 of U46619 in presence of analog: 6.25 ± 0.14
  ΔpD2 of U46619: 1.92 ± 0.14
Analog 3 × 10^-6 M
  Kb: 380 nM
  pD2 of U46619 in presence of analog: 7.20 ± 0.12
  ΔpD2 of U46619: 0.96 ± 0.19
  inhibitory potency on U46619-induced contractions greater than trimetoquinol: ~10 fold
